Experimental data as given in US10113968B2, “Specific detection and quantification of cardiolipin and isolated mitochondria by positively charged AIE fluorogens and method of manufacturing thereof” (priority 2013, dated 2018).

Legend:
[1] = Fluorescence response of dye to CL-containing (TOCL/DOPC) and CL-free (DOPC) LUVs; details: for emission with CL-containing vesicles: TOCL/DOPC 1:1, 25 mM HEPES pH 7.4, λex=350 nm
Description: CL-containing vesicles are composed of TOCL/DOPC (1:1 molar ratio), and CL-free vesicles are composed of pure DOPC, respectively, in a 25 mM HEPES buffer at pH 7.4. [dye]=10 μM; [lipid]total=22 μM; λex=350 nm.
FIG. 3A is a plot of the fluorescence enhancement (I/I0−1) of TTAPE-Me at 480 nm with CL-containing and CL-free vesicles.
FIG. 3B is the linear region of the I/I0−1 value versus CL concentration. [dye]=10 μM; λex=350 nm.
FIG. 4B is a plot of the fluorescence enhancement at 480 nm versus CL content. [dye]=10 μM; [lipid]total=22 μM; λex=350 nm.
CL-containing and CL-free vesicles are composed of TOCL/DOPC (1:1 molar ratio) and pure DOPC, respectively, in a 25 mM HEPES buffer at pH 7.4. [dye]=10 μM; [lipid]total=22 μM; λex=350 nm.
The fluorescence enhancement (I/I0−1) of TTAPE-Me at 480 nm is in a linear fashion in the CL concentration of 0-10 μM (FIG. 3B), which lies in the physiological range of CL in mitochondrial membrane. Linear detection of CL can also be obtained with the varying content of TOCL (2-50% TOCL) in the vesicles (FIG. 4A-4B). The results imply that flexible TTAPE-Me to CL ratio is allowed in the detection and quantification of CL. In contrast, conventional NAO requires strict 2:1 ratio of NAO/CL for quantitative measurement. Moreover, the detection of CL can be done immediately upon mixing the vesicles with the probe without any extra treatment.
To determine whether TTAPE-Me can specifically detect CL, two types of large unilamellar vesicles (LUVs) 100-200 nm in diameter were prepared (FIG. 2A-2B). The CL-free vesicles were prepared by pure 1,2-dioleoyl-sn-glycero-[…] (DOPC), which is the most abundant phospholipid in eukaryotic membranes. CL-containing vesicles were fabricated by the mixture of 1,1′,2,2′-tetraoleoyl cardiolipin (TOCL) and DOPC, in which the zwitterionic DOPC is used to stabilize the vesicles.

[2] = Fluorescence response to CL-containing and CL-free all-component LUVs; details: [dye]=10 μM
Description: (§1) Emission spectra of (C) TTAPE-Me and (D) NAO with CL-containing and CL-free all-component vesicles are shown. (E) Bar chart of the change in fluorescence intensity shown in panels C and D (red: CL-containing vesicles, blue: CL-free vesicles). [dye]=10 μM; [lipid]total=22 μM; for TTAPE-Me: λex=350 nm and λem=480 nm; for NAO: λex=499 nm and λem=530 nm.
Meanwhile, to mimic the mitochondrial membranes, CL-containing and CL-free all-component LUVs were prepared. The CL-containing and CL-free all-component LUVs were composed by the mixture of all the above mentioned lipids at their physiological ratios (FIG. 9A-9B). […] With the CL-containing LUVs, the greenish-blue fluorescence is enhanced by over 3-fold (FIGS. 7C & E). Parallel experiments were conducted with NAO as the probe. NAO is a turn-off sensor whose fluorescence is decreased in the presence of CL (FIG. 7D). However, CL is not the only lipid that induces the decrease of NAO signals—other lipids such as DPPE, PI, or DOPS, can also induce the decrease of NAO signals to a large extent (FIG. 7B).

[3] = background statement; cited from earlier work
[4] = Fluorescence response to vesicles of different single mitochondrial lipids; details: 20% TOCL, 100% DOPC, 40% DPPE, 2% soy PI, 1% DOPS, 2% SM, rest DOPC; [dye]=10 μM; [lipid]total=22 μM
Description: as §1
To further evaluate the specificity of TTAPE-Me towards CL, the response of TTAPE-Me to other major lipids found on mitochondrial membranes was examined. The other major lipids evaluated were 1,2-dipalmitoleoyl-sn-glycero-3-phosphoethanolamine (DPPE):
Six different types of LUVs were fabricated and were composed of each of the above lipids and TOCL and DOPC at the exact percentage as mitochondrial membrane, with the remaining percentage of each type of LUV filled by DOPC.
While DOPS and PI are also negatively charged, they carry only one charge per molecule and share only 1% and 2% of the total mitochondrial membrane lipids, respectively (CL for ˜20%).

[5] = test system: pUC 18 DNA, 2686 bp; experiment: Fluorescence of TTAPE-Me in the presence of plasmid DNA; details: wide range of DNA concentrations; [dye]=10 μM; λex=350 nm
Description: (TTAPE-Me with CL-containing LUVs is shown for comparison) [dye]=10 μM; λex=350 nm.
On the other hand, one might think that the negatively charged mitochondrial DNA (mtDNA) may interfere with the detection of CL by TTAPE-Me.

[6] = test system: isolated mitochondria; experiment: Quantification and staining of isolated yeast mitochondria by fluorescence; design: species or system S. cerevisiae strain YPH 500; details: SEM buffer pH 7.2; [dye]=10 μM; λex=350 nm; emission at 480 nm
Excerpt: Individual mitochondria from S. cerevisiae strain YPH 500 have been isolated and calibrated by Biuret test. […] In contrast, time-consuming and intricate procedures are involved when using NAO for the quantification of isolated mitochondria. The isolated mitochondria are fixed by formaldehyde, followed by multiple rinsing, centrifugation and resuspension steps. Further, the signal-to-noise ratio by using NAO is much smaller, likely due to the strong background of NAO in solution.

[7] = Isothermal titration calorimetry (ITC) of CL-containing vesicles with TTAPE-Me; assay type: binding; details: 25° C., CL-containing vesicles TOCL/DOPC 1:1, curve fitting, read-out: dissociation constant
Description: [dye]=10 μM; [lipid]total=22 μM; λex=350 nm. (B) Job plot for determination of the binding stoichiometry of TTAPE-Me to CL-containing vesicles. The total concentration of TTAPE-Me and CL is kept at 20 μM. (C) calorimetric curves for titration of CL-containing vesicles with serial injections of TTAPE-Me at 25° C. (D) Binding isotherm as a function of [TTAPE-Me]/[lipid]total molar ratio. CL-containing vesicles are composed of TOCL and DOPC (1:1 molar ratio).
According to the AIE principle, TTAPE-Me is only fluorescent when bound, and thus the fluorescence can report the binding of TTAPE-Me to CL-containing vesicles. The emission intensity varying ratios of TTAPE-Me to CL-containing LUVs is then recorded and correlated to a Job plot (FIG. 5B). The plot has a peak at ˜0.67, corresponding to a 2:1 binding ratio for TOCL to TTAPE-Me. The binding ratio perfectly matches the charge ratio, providing further support that the binding of TTAPE-Me towards CL is primarily driven by electrostatic interaction. […] The binding curve was generated by integration of the area of each injection peak followed by the subtraction of the dilution heat of dye molecules (FIG. 5D).

[8] = [dye]=10 μM, [lipid]total=22 μM

In the case of O=S(=O)([O-])CCCOc1ccc(/C(=C(\c2ccccc2)c2ccc(OCCCS(=O)(=O)[O-])cc2)c2ccccc2)cc1.[Na+].[Na+] [BSPOTPE, reference compound], the “emission with CL-containing vesicles” value [1, 8] is reported as “no remarkable fluorescence enhancement”.

In the case of CCCCCCCCC[n+]1c2cc(N(C)C)ccc2cc2ccc(N(C)C)cc21.[Br-] [NAO, 10-N-nonyl acridine orange, reference compound], the “fluorescence in the presence of CL (all-component LUVs)” value ([2]; λex=499 nm, λem=530 nm) is listed as “decreased”, the water-solubility [3] is listed as “poor water-solubility” and the “fluorescence response to vesicles of different lipid contents (selectivity)” value [4] is listed as “poor selectivity”.

In the case of C[N+](C)(C)CCOc1ccc(C(=C(c2ccc(OCC[N+](C)(C)C)cc2)c2ccc(OCC[N+](C)(C)C)cc2)c2ccc(OCC[N+](C)(C)C)cc2)cc1.[Br-].[Br-].[Br-].[Br-] [TTAPE-Me, 1,1,2,2-tetrakis[4-(2-trimethylammonio-ethoxy)phenyl]ethene tetrabromide], the “fluorescence in the presence of plasmids” value [5] is reported as “no fluorescence enhancement”, the “emission spectrum with CL-free all-component LUVs” value ([2]; [lipid]total=22 μM) is reported as “remains identical to that of the free dye in buffer” and the “fluorescence enhancement with CL-containing all-component LUVs” value ([2]; [lipid]total=22 μM, λex=350 nm, λem=480 nm) is reported as “over 3 fold”. The “relation of fluorescence intensity to mitochondria concentration” value [6] was “linear relationship”, the “emission with CL-containing vesicles” value [1, 8] was “turned on” and the “fluorescence with CL-containing vesicles on increase of NaCl concentration” value [1, 8] was “diminishes”. For the same compound, the “emission with CL-free vesicles” value ([1]; pure DOPC vesicles, increasing total lipid concentration) was “remains rather weak”, the Kd [7] was 2.08 µM and the “fluorescence response to vesicles of different lipid contents (selectivity)” value [4] was “selectively turned on with the TOCL vesicles”.
